Data set [1] in a line: The drug is tested on Z-027 corresponding to metagenome with ENA study accession number: PRJEB37062 and ENA sample accession number: ERS12561826 for biotransformation under anaerobic condition. The drug concentrations were measured over 9 timepoints collected between 0 and 24 hours of incubation by liquid-chromatography-coupled mass spectrometry (LC–MS). To be noted: 2 µM.

A short description of data set [2]: The drug is tested on Z-013 corresponding to rabbit gut metagenome with ENA study accession number: PRJEB37062 and ENA sample accession number: ERS12561813 for biotransformation under anaerobic condition. The drug concentrations were measured over 9 timepoints collected between 0 and 24 hours of incubation by liquid-chromatography-coupled mass spectrometry (LC–MS). To be noted: 2 µM.

A short description of data set [3]: The drug is tested on Z-011 corresponding to mouse gut metagenome with ENA study accession number: PRJEB37062 and ENA sample accession number: ERS12561811 for biotransformation under anaerobic condition. The drug concentrations were measured over 9 timepoints collected between 0 and 24 hours of incubation by liquid-chromatography-coupled mass spectrometry (LC–MS). The note with it: 2 µM.

Data set [4] in a line: The drug is tested on Z-010 corresponding to metagenome with ENA study accession number: PRJEB37062 and ENA sample accession number: ERS12561810 for biotransformation under anaerobic condition. The drug concentrations were measured over 9 timepoints collected between 0 and 24 hours of incubation by liquid-chromatography-coupled mass spectrometry (LC–MS). The note with it: 2 µM.

Data set [5] is described as follows: The drug is tested on Z-009 corresponding to pig gut metagenome with ENA study accession number: PRJEB37062 and ENA sample accession number: ERS12561809 for biotransformation under anaerobic condition. The drug concentrations were measured over 9 timepoints collected between 0 and 24 hours of incubation by liquid-chromatography-coupled mass spectrometry (LC–MS). To be noted: 2 µM.

Data set [6] is described as follows: The drug is tested on Z-006 corresponding to mouse gut metagenome with ENA study accession number: PRJEB37062 and ENA sample accession number: ERS12561806 for biotransformation under anaerobic condition. The drug concentrations were measured over 9 timepoints collected between 0 and 24 hours of incubation by liquid-chromatography-coupled mass spectrometry (LC–MS). The note with it: 2 µM.

Data set [7] can be described thus: The drug is tested on Z-005 corresponding to metagenome with ENA study accession number: PRJEB37062 and ENA sample accession number: ERS12561805 for biotransformation under anaerobic condition. The drug concentrations were measured over 9 timepoints collected between 0 and 24 hours of incubation by liquid-chromatography-coupled mass spectrometry (LC–MS). The note with it: 2 µM.

A short description of data set [8]: The drug is tested on WLS-370 corresponding to human gut metagenome with ENA study accession number: PRJEB37062 and ENA sample accession number: ERS12561793 for biotransformation under anaerobic condition. The drug concentrations were measured over 9 timepoints collected between 0 and 24 hours of incubation by liquid-chromatography-coupled mass spectrometry (LC–MS). To be noted: 2 µM.

Data set [9] can be described thus: The drug is tested on WLS-220 corresponding to human gut metagenome with ENA study accession number: PRJEB37062 and ENA sample accession number: ERS12561769 for biotransformation under anaerobic condition. The drug concentrations were measured over 9 timepoints collected between 0 and 24 hours of incubation by liquid-chromatography-coupled mass spectrometry (LC–MS). The note with it: 2 µM.

Data set [10] in a line: The drug is tested on WLS-073 corresponding to human gut metagenome with ENA study accession number: PRJEB37062 and ENA sample accession number: ERS12561749 for biotransformation under anaerobic condition. The drug concentrations were measured over 9 timepoints collected between 0 and 24 hours of incubation by liquid-chromatography-coupled mass spectrometry (LC–MS). The note with it: 2 µM.

For data set [11] the following is noted: human gut metagenome, 24 h, 2 µM.
The conditions of data set [12]: human gut metagenome, 24 h, 2 µM. The source holds these as a separate data set.
For data set [13] the following is noted: human gut metagenome, 24 h, 2 µM. The source holds these as a separate data set.
The conditions of data set [14]: human gut metagenome, 24 h, 2 µM. This is another data set of the same source.
The conditions of data set [15]: human gut metagenome, 24 h, 2 µM. The source holds these as a separate data set.
For data set [16] the following is noted: human gut metagenome, 24 h, 2 µM. The source holds these as a separate data set.
The conditions of data set [17]: human gut metagenome, 24 h, 2 µM. The source holds these as a separate data set.
For data set [18] the following is noted: human gut metagenome, 24 h, 2 µM. The source holds these as a separate data set.
For data set [19] the following is noted: human gut metagenome, 24 h, 2 µM. This is another data set of the same source.
The conditions of data set [20]: human gut metagenome, 24 h, 2 µM. This is another data set of the same source.
Also: call rule not given here.

In the case of `Clc1ccc(Cn2c(CN3CCCC3)nc3ccccc32)cc1` [CLEMIZOLE], the “Bacterial Biotransformation” value is “Compound NOT metabolized” in data set [1]; “Compound metabolized” in [2]; “Compound NOT metabolized” in [3]; “Compound metabolized” in data set [4]; “Compound NOT metabolized” in data set [5]; “Compound NOT metabolized” in data set [6]. Further, the “Bacterial Biotransformation” value in [7] is “Compound NOT metabolized”; in data set [8] it was “Compound metabolized”; in data set [9] it was “Compound NOT metabolized”; in data set [10] it was “Compound NOT metabolized”; in data set [11], “Compound metabolized”; in [12] it was “Compound metabolized”. Further, the “Bacterial Biotransformation” value in [13] is reported as “Compound metabolized”; in data set [14], “Compound NOT metabolized”; in [15], “Compound NOT metabolized”; in [16] it was “Compound metabolized”; in [17] it was “Compound NOT metabolized”; in data set [18], “Compound metabolized”. The “Bacterial Biotransformation” value in [19] and in data set [20] was “Compound metabolized” throughout.

In the case of `CN1CCN(C2=Nc3cc(Cl)ccc3Nc3ccccc32)CC1` [CLOZAPINE], the “Bacterial Biotransformation” value in [1], in data set [2], in data set [3], in data set [4], in data set [5] and in data set [6] was “Compound NOT metabolized” throughout. In addition, the “Bacterial Biotransformation” value in [7] is “Compound NOT metabolized”; in [8], “Compound metabolized”; in data set [9] it was “Compound metabolized”; in data set [10] it was “Compound NOT metabolized”; in data set [11], “Compound NOT metabolized”; in data set [12], “Compound metabolized”. In addition, the “Bacterial Biotransformation” value in data set [13] is listed as “Compound metabolized”; in [14] it was “Compound NOT metabolized”; in [15] it was “Compound NOT metabolized”; in data set [16], “Compound metabolized”; in data set [17], “Compound metabolized”; in [18], “Compound metabolized”. For the same molecule, the “Bacterial Biotransformation” value in data set [19] and in data set [20] was “Compound NOT metabolized” each time.

As to `COc1cc2c(c(OC)c1OC)-c1ccc(OC)c(=O)cc1[C@@H](NC(C)=O)CC2` [COLCHICINE], the “Bacterial Biotransformation” value is listed as “Compound NOT metabolized” in data set [1]; “Compound NOT metabolized” in [2]; “Compound NOT metabolized” in data set [3]; “Compound metabolized” in data set [4]; “Compound metabolized” in data set [5]; “Compound NOT metabolized” in data set [6]. The “Bacterial Biotransformation” value in data set [7] was “Compound metabolized”; in data set [8], “Compound NOT metabolized”; in data set [9], “Compound metabolized”; in data set [10], “Compound metabolized”; in data set [11], “Compound NOT metabolized”; in data set [12], “Compound NOT metabolized”. The “Bacterial Biotransformation” value in [13] is “Compound NOT metabolized”; in data set [14], “Compound metabolized”; in data set [15], “Compound NOT metabolized”; in data set [16] it was “Compound metabolized”; in data set [17], “Compound metabolized”; in data set [18] it was “Compound metabolized”. Further, the figures for the “Bacterial Biotransformation” value in data set [19] and in [20] were “Compound metabolized” and “Compound NOT metabolized”, respectively.

The record behind these values is ChEMBL document CHEMBL5724914, “Linking interpersonal differences in gut microbiota composition and drug biotransformation activity” (2024).
